Test results taken from patent US20160060322A1, “RELAXIN-LIKE PEPTIDES AND USES THEREOF” (ANGION BIOMEDICA CORP., priority 2012, published 2016).

System: HEK-293T cells
Experiment: cAMP production in parental HEK-293T cells lacking RXFP1
Assay type: cell-based
Conditions: parental HEK-293T cells (lack RXFP1); H2R 10 ng/mL

**Q.** With “H2R: ~6 kd peptide hormone, 24 amino acid A chain (SEQ ID NO:5) and 29 amino acid B chain (SEQ ID NO:6) linked by disulfide bridges (chain 1 ZLYSALANKCCHVGCTKRSLARFC; chain 2 DSWMEEVIKLCGRELVRAQIAICGMSTWS; disulfide bridges; listed as Homo sapiens)” as the substance, how does the “cAMP response in parental cells” value read?
**A.** The value was “no cAMP response”.
